Numbered stars: 1 amine (or outer) side, 2 acyl side, 3 side chain; on linkers, the order of the positions; unused ones are H or OH. Bridge positions count the residues as written; N and C are the ends. Side chains are listed from the residue outwards. Peptide text beside a SMILES is read from it. * marks the point of attachment. C20 diacid = O=C(O)CCCCCCCCCCCCCCCCCCC(=O)*; γGlu = O=C(O)[C@H](CCC(=O)[*:2])N[*:1]; AEEA = NCCOCCOCC(=O)O

One assay deals with T1, human calcitonin receptor (Homo sapiens, UniProt P30988).
T1 construct: expressed in transfected cells
T1 sequence (P30988 25-474): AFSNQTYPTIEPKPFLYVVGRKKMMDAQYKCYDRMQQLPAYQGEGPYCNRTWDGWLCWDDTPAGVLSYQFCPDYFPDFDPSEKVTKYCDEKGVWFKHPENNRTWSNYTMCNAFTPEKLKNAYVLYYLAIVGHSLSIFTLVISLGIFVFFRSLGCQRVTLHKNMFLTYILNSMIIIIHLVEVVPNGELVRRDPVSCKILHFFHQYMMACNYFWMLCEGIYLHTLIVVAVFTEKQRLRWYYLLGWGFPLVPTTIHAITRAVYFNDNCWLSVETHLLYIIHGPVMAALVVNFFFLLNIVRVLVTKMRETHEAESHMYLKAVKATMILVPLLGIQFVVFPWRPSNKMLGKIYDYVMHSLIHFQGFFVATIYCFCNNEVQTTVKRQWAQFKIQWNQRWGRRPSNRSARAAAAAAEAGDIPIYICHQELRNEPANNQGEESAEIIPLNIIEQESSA
Description: ASSAY (VII) binding to the human calcitonin receptor (SPA, 125I-Calcitonin).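 Further: cell membranes (35 ng/µL) combined with SPA beads in 40 µL of pH 7.4 Hepes buffer, 384-well format, signal counted on a TopCounter instrument.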
Details: not given
Take `CC[C@H](C)[C@H](NC(=O)[C@H](C)NC(=O)CNC(=O)[C@H](Cc1ccccc1)NC(=O)[C@H](CC(N)=O)NC(=O)[C@@H]1CCCN1C(=O)[C@H](CO)NC(=O)[C@H](CO)NC(=O)[C@H](Cc1c[nH]cn1)NC(=O)[C@H](CCCNC(=N)N)NC(=O)[C@H](CC(C)C)NC(=O)[C@H](Cc1ccccc1)NC(=O)[C@H](C)NC(=O)[C@H](C)NC(=O)[C@H](CC(C)C)NC(=O)[C@H](CCCNC(=N)N)NC(=O)[C@H](CCC(N)=O)NC(=O)[C@@H](NC(=O)[C@H](C)NC(=O)[C@@H]1CSSC[C@H](NC(=O)[C@H](CCCNC(=N)N)NC(=O)CNC(=O)CC[C@H](NC(=O)CCCCCCCCCCCCCCCCCCC(=O)O)C(=O)O)C(=O)N[C@@H](CC(N)=O)C(=O)N[C@@H]([C@@H](C)O)C(=O)N[C@@H](C)C(=O)N[C@@H]([C@@H](C)O)C(=O)N1)[C@@H](C)O)C(=O)N1CCC[C@H]1C(=O)N[C@@H](CO)C(=O)N[C@@H](CO)C(=O)N[C@H](C(=O)N[C@@H](CC(N)=O)C(=O)N[C@H](C(=O)NCC(=O)N1CCC[C@H]1C(=O)N[C@@H](CC(N)=O)C(=O)N[C@H](C(=O)N[C@@H](Cc1ccc(O)cc1)C(N)=O)[C@@H](C)O)C(C)C)[C@@H](C)O` [Example 103] ({C20 diacid-γGlu}-GRCNTATCATQRLAAFLRHSSPNFGAIPSSTNVGPNTY-NH2; disulfide 3-8): the IC50 (as a rule, the concentration that gives 50% inhibition) was 3 nM.

The assay is the same for the next values; noted with them: read-out: hCTR bind IC50.
As to `CC[C@H](C)[C@H](NC(=O)[C@H](C)NC(=O)CNC(=O)[C@H](Cc1ccccc1)NC(=O)[C@H](CC(N)=O)NC(=O)[C@@H]1CCCN1C(=O)[C@H](CO)NC(=O)[C@H](CO)NC(=O)[C@H](Cc1c[nH]cn1)NC(=O)[C@H](CCCNC(=N)N)NC(=O)[C@H](CC(C)C)NC(=O)[C@H](Cc1ccccc1)NC(=O)[C@H](CC(N)=O)NC(=O)[C@H](C)NC(=O)[C@H](CC(C)C)NC(=O)[C@H](CCCNC(=N)N)NC(=O)[C@H](CCC(N)=O)NC(=O)[C@@H](NC(=O)[C@H](C)NC(=O)[C@@H]1CSSC[C@H](NC(=O)[C@@H](N)CCCCNC(=O)COCCOCCNC(=O)COCCOCCNC(=O)CC[C@H](NC(=O)CCCCCCCCCCCCCCCCCCC(=O)O)C(=O)O)C(=O)N[C@@H](CC(N)=O)C(=O)N[C@@H]([C@@H](C)O)C(=O)N[C@@H](C)C(=O)N[C@@H]([C@@H](C)O)C(=O)N1)[C@@H](C)O)C(=O)N1CCC[C@H]1C(=O)N[C@@H](CO)C(=O)N[C@@H](CO)C(=O)N[C@H](C(=O)N[C@@H](CC(N)=O)C(=O)N[C@H](C(=O)NCC(=O)N[C@@H](CCCNC(=N)N)C(=O)N[C@@H](CC(N)=O)C(=O)N[C@H](C(=O)N[C@@H](Cc1ccc(O)cc1)C(N)=O)[C@@H](C)O)C(C)C)[C@@H](C)O` [Example 95] (H-K([AEEA-AEEA-γGlu-C20 diacid])CNTATCATQRLANFLRHSSPNFGAIPSSTNVGRNTY-NH2; disulfide 2-7 (inferred); N-terminus assumed), the IC50 came to 61.3 nM. Same read-out and setting: with `CC[C@H](C)[C@H](NC(=O)[C@H](C)NC(=O)CNC(=O)[C@H](Cc1ccccc1)NC(=O)[C@H](CC(N)=O)NC(=O)[C@@H]1CCCN1C(=O)[C@H](CO)NC(=O)[C@H](CO)NC(=O)[C@H](Cc1c[nH]cn1)NC(=O)[C@H](CCCNC(=N)N)NC(=O)[C@H](CC(C)C)NC(=O)[C@H](Cc1ccccc1)NC(=O)[C@H](C)NC(=O)[C@H](C)NC(=O)[C@H](CC(C)C)NC(=O)[C@H](CCCNC(=N)N)NC(=O)[C@H](CCC(N)=O)NC(=O)[C@@H](NC(=O)[C@H](C)NC(=O)[C@@H]1CSSC[C@H](NC(=O)[C@H](CCCNC(=N)N)NC(=O)CNC(=O)CC[C@H](NC(=O)CCCCCCCCCCCCCCCCCCC(=O)O)C(=O)O)C(=O)N[C@@H](CC(N)=O)C(=O)N[C@@H]([C@@H](C)O)C(=O)N[C@@H](C)C(=O)N[C@@H]([C@@H](C)O)C(=O)N1)[C@@H](C)O)C(=O)N1CCC[C@H]1C(=O)N[C@@H](CO)C(=O)N[C@@H](CO)C(=O)N[C@H](C(=O)N[C@@H](CC(N)=O)C(=O)N[C@H](C(=O)NCC(=O)N[C@@H](Cc1c[nH]cn1)C(=O)N[C@@H](CC(N)=O)C(=O)N[C@H](C(=O)N[C@@H](Cc1ccc(O)cc1)C(N)=O)[C@@H](C)O)C(C)C)[C@@H](C)O` [Example 101] ({C20 diacid-γGlu}-GRCNTATCATQRLAAFLRHSSPNFGAIPSSTNVGHNTY-NH2; disulfide 3-8) the figure was 29.2 nM; with `CC[C@H](C)[C@H](NC(=O)[C@H](C)NC(=O)CNC(=O)[C@H](Cc1ccccc1)NC(=O)[C@H](CC(N)=O)NC(=O)[C@@H]1CCCN1C(=O)[C@H](CO)NC(=O)[C@H](CO)NC(=O)[C@H](Cc1c[nH]cn1)NC(=O)[C@H](CCCNC(=N)N)NC(=O)[C@H](CC(C)C)NC(=O)[C@H](Cc1ccccc1)NC(=O)[C@H](CCC(=O)O)NC(=O)[C@H](C)NC(=O)[C@H](CC(C)C)NC(=O)[C@H](CCCNC(=N)N)NC(=O)[C@H](CCC(N)=O)NC(=O)[C@@H](NC(=O)[C@H](C)NC(=O)[C@@H]1CSSC[C@H](NC(=O)[C@@H](N)CCCCNC(=O)CC[C@H](NC(=O)CC[C@H](NC(=O)CCCCCCCCCCCCCCCCCCC(=O)O)C(=O)O)C(=O)O)C(=O)N[C@@H](CC(N)=O)C(=O)N[C@@H]([C@@H](C)O)C(=O)N[C@@H](C)C(=O)N[C@@H]([C@@H](C)O)C(=O)N1)[C@@H](C)O)C(=O)N1CCC[C@H]1C(=O)N[C@@H](CO)C(=O)N[C@@H](CO)C(=O)N[C@H](C(=O)N[C@@H](CC(N)=O)C(=O)N[C@H](C(=O)NCC(=O)N[C@@H](CCCNC(=N)N)C(=O)N[C@@H](CCC(=O)O)C(=O)N[C@H](C(=O)N[C@@H](Cc1ccc(O)cc1)C(N)=O)[C@@H](C)O)C(C)C)[C@@H](C)O` [Example 105] (H-K([γGlu-γGlu-C20 diacid])CNTATCATQRLAEFLRHSSPNFGAIPSSTNVGRETY-NH2; disulfide 2-7; N-terminus assumed), 14.1 nM. Still for that read-out and setting: with `CC[C@H](C)[C@H](NC(=O)[C@H](C)NC(=O)CNC(=O)[C@H](Cc1ccccc1)NC(=O)[C@H](CC(N)=O)NC(=O)[C@@H]1CCCN1C(=O)[C@H](CO)NC(=O)[C@H](CO)NC(=O)[C@H](Cc1c[nH]cn1)NC(=O)[C@H](CCCNC(=N)N)NC(=O)[C@H](CC(C)C)NC(=O)[C@H](Cc1ccccc1)NC(=O)[C@H](CCC(=O)O)NC(=O)[C@H](C)NC(=O)[C@H](CC(C)C)NC(=O)[C@H](CCCNC(=N)N)NC(=O)[C@H](CCC(N)=O)NC(=O)[C@@H](NC(=O)[C@H](C)NC(=O)[C@@H]1CSSC[C@H](NC(=O)[C@@H](N)CCCCNC(=O)CC[C@H](NC(=O)CCCCCCCCCCCCCCCCCCC(=O)O)C(=O)O)C(=O)N[C@@H](CC(N)=O)C(=O)N[C@@H]([C@@H](C)O)C(=O)N[C@@H](C)C(=O)N[C@@H]([C@@H](C)O)C(=O)N1)[C@@H](C)O)C(=O)N1CCC[C@H]1C(=O)N[C@@H](CO)C(=O)N[C@@H](CO)C(=O)N[C@H](C(=O)N[C@@H](CC(N)=O)C(=O)N[C@H](C(=O)NCC(=O)N[C@@H](Cc1c[nH]cn1)C(=O)N[C@@H](CCC(=O)O)C(=O)N[C@H](C(=O)N[C@@H](Cc1ccc(O)cc1)C(N)=O)[C@@H](C)O)C(C)C)[C@@H](C)O` [Example 107] (H-K([γGlu-C20 diacid])CNTATCATQRLAEFLRHSSPNFGAIPSSTNVGHETY-NH2; disulfide 2-7 (inferred)) the figure was 4.28 nM; with `CC[C@H](C)[C@H](NC(=O)[C@H](C)NC(=O)CNC(=O)[C@H](Cc1ccccc1)NC(=O)[C@H](CC(N)=O)NC(=O)[C@@H]1CCCN1C(=O)[C@H](CO)NC(=O)[C@H](CO)NC(=O)[C@H](Cc1c[nH]cn1)NC(=O)[C@H](CCCNC(=N)N)NC(=O)[C@H](CC(C)C)NC(=O)[C@H](Cc1ccccc1)NC(=O)[C@H](CCC(=O)O)NC(=O)[C@H](C)NC(=O)[C@H](CC(C)C)NC(=O)[C@H](CCCNC(=N)N)NC(=O)[C@H](CCC(N)=O)NC(=O)[C@@H](NC(=O)[C@H](C)NC(=O)[C@@H]1CSSC[C@H](NC(=O)[C@@H](N)CCCCNC(=O)CC[C@H](NC(=O)CCCCCCCCCCCCCCCCCCC(=O)O)C(=O)O)C(=O)N[C@@H](CC(N)=O)C(=O)N[C@@H]([C@@H](C)O)C(=O)N[C@@H](C)C(=O)N[C@@H]([C@@H](C)O)C(=O)N1)[C@@H](C)O)C(=O)N1CCC[C@H]1C(=O)N[C@@H](CO)C(=O)N[C@@H](CO)C(=O)N[C@H](C(=O)N[C@@H](CC(N)=O)C(=O)N[C@H](C(=O)NCC(=O)N[C@@H](CCCNC(=N)N)C(=O)N[C@@H](CCC(=O)O)C(=O)N[C@H](C(=O)N[C@@H](Cc1ccc(O)cc1)C(N)=O)[C@@H](C)O)C(C)C)[C@@H](C)O` [Example 108] (H-K([γGlu-C20 diacid])CNTATCATQRLAEFLRHSSPNFGAIPSSTNVGRETY-NH2; disulfide 2-7; N-terminus assumed), 6.62 nM; with `CC[C@H](C)[C@H](NC(=O)[C@H](C)NC(=O)CNC(=O)[C@H](Cc1ccccc1)NC(=O)[C@H](CC(N)=O)NC(=O)[C@@H]1CCCN1C(=O)[C@H](CO)NC(=O)[C@H](CO)NC(=O)[C@H](Cc1c[nH]cn1)NC(=O)[C@H](CCCNC(=N)N)NC(=O)[C@H](CC(C)C)NC(=O)[C@H](Cc1ccccc1)NC(=O)[C@H](Cc1c[nH]cn1)NC(=O)[C@H](C)NC(=O)[C@H](CC(C)C)NC(=O)[C@H](CCCNC(=N)N)NC(=O)[C@H](CCC(N)=O)NC(=O)[C@@H](NC(=O)[C@H](C)NC(=O)[C@@H]1CSSC[C@H](NC(=O)[C@@H](N)CCCCNC(=O)CC[C@H](NC(=O)CCCCCCCCCCCCCCCCCCC(=O)O)C(=O)O)C(=O)N[C@@H](CC(N)=O)C(=O)N[C@@H]([C@@H](C)O)C(=O)N[C@@H](C)C(=O)N[C@@H]([C@@H](C)O)C(=O)N1)[C@@H](C)O)C(=O)N1CCC[C@H]1C(=O)N[C@@H](CO)C(=O)N[C@@H](CO)C(=O)N[C@H](C(=O)N[C@@H](CC(N)=O)C(=O)N[C@H](C(=O)NCC(=O)N1CCC[C@H]1C(=O)N[C@@H](CC(N)=O)C(=O)N[C@H](C(=O)N1CCC[C@H]1C(N)=O)[C@@H](C)O)C(C)C)[C@@H](C)O` [Example 115] (H-K([γGlu-C20 diacid])CNTATCATQRLAHFLRHSSPNFGAIPSSTNVGPNTP-NH2; disulfide 2-7 (inferred); N-terminus assumed), 0.157 nM.

Values taken from US9023789B2, “Amylin analogs and pharmaceutical compositions thereof” (Novo Nordisk A/S, priority 2012, dated 2015).
